Reference: patent publication US12037333B2, “Pyridopyrazine and pyridotriazine inhibitors of influenza virus replication” (priority 2018, dated 2024)

tested on: Influenza type B (cell culture adapted strain B/Lee/40, ATCC VR-1535); test: Influenza antiviral assay: inhibition of virus-induced cytopathic effects (CPE) in MDCK cells, XTT dye reduction; type: cell-based; settings: Influenza B virus, MDCK, 96 h, strain B/Lee/40, MDCK cells, CPE inhibition at 4 days

| Structure (SMILES) | EC50 [nM] |
| --- | --- |
| O=C1c2c(O)c(=O)ccn2N(C23c4ccccc4CC2Cc2c3ccc(F)c2F)CN1Cc1cccc(F)c1 (stereo not shown) [Compound A26, 1-(1,2-difluoro-9a,10-dihydroindeno[1,2-a]inden-4b(9H)-yl)-3-(3-fluorobenzyl)-5-hydroxy-2,3-dihydro-1H-pyrido[2,1-f][1,2,4]triazine-4,6-dione] | 250 to 375 |
| O=C1c2c(O)c(=O)ccn2N(C23c4ccccc4CC2Cc2c3ccc(F)c2F)CN1CCc1cccc(F)c1 (stereo not shown) [Compound A27, 1-(1,2-difluoro-9a,10-dihydroindeno[1,2-a]inden-4b(9H)-yl)-3-(3-fluorophenethyl)-5-hydroxy-2,3-dihydro-1H-pyrido[2,1-f][1,2,4]triazine-4,6-dione] | 250 to 375 |
| O=C1c2c(O)c(=O)ccn2N(C23c4ccccc4CC2Cc2cc(F)c(F)cc23)CN1CCc1cccc(F)c1 (stereo not shown) [Compound A28, 1-(2,3-difluoro-9a,10-dihydroindeno[1,2-a]inden-4b(9H)-yl)-3-(3-fluorophenethyl)-5-hydroxy-2,3-dihydro-1H-pyrido[2,1-f][1,2,4]triazine-4,6-dione] | 250 to 375 |
| O=C1c2c(O)c(=O)ccn2N(C23c4ccccc4CC2Cc2cc(F)c(F)cc23)CN1CCc1ccc(F)cc1 (stereo not shown) [Compound A29, 1-(2,3-difluoro-9a,10-dihydroindeno[1,2-a]inden-4b(9H)-yl)-3-(4-fluorophenethyl)-5-hydroxy-2,3-dihydro-1H-pyrido[2,1-f][1,2,4]triazine-4,6-dione] | 250 to 375 |
| CN1CN(C23C(=Cc4ccccc42)Cc2ccccc23)n2ccc(=O)c(O)c2C1=O (stereo not shown) [Compound A30, 5-hydroxy-1-(indeno[1,2-a]inden-4b(9H)-yl)-3-methyl-2,3-dihydro-1H-pyrido[2,1-f][1,2,4]triazine-4,6-dione] | 375 to 500 |
| O=C1c2c(O)c(=O)ccn2N(C23c4ccccc4CC2Cc2ccccc23)CN1Cc1cccc(Cl)c1F (stereo not shown) [Compound A31, 3-(3-chloro-2-fluorobenzyl)-1-(9a,10-dihydroindeno[1,2-a]inden-4b(9H)-yl)-5-hydroxy-2,3-dihydro-1H-pyrido[2,1-f][1,2,4]triazine-4,6-dione] | 375 to 500 |
| CN1CN(C23c4ccccc4CC2Cc2c3ccc(F)c2Cl)n2ccc(=O)c(O)c2C1=O (stereo not shown) [Compound A46, 1-(1-Chloro-2-fluoro-9a,10-dihydroindeno[1,2-a]inden-4b(9H)-yl)-5-hydroxy-3-methyl-2,3-dihydro-1H-pyrido[2,1-f][1,2,4]triazine-4,6-dione] | < 125 |
| CCN1CN(C23c4ccccc4CC2Cc2c3ccc(F)c2Cl)n2ccc(=O)c(O)c2C1=O (stereo not shown) [Compound A47] | 125 to 250 |
| CCOC12Cc3ccccc3C1(N1CN(CC)C(=O)c3c(O)c(=O)ccn31)c1ccccc1C2 (stereo not shown) [Compound A48, 1-(9a-Ethoxy-9a,10-dihydroindeno[1,2-a]inden-4b(9H)-yl)-3-ethyl-5-hydroxy-2,3-dihydro-1H-pyrido[2,1-f][1,2,4]triazine-4,6-dione] | < 125 |
| COCCN1CN(C23c4cccc(F)c4CC2Cc2c(F)cccc23)n2ccc(=O)c(O)c2C1=O (stereo not shown) [Compound A49] | < 125 |
| CC(C)N1CN(C23c4ccccc4CC2(C)Cc2ccccc23)n2ccc(=O)c(O)c2C1=O (stereo not shown) [Compound A50, 5-hydroxy-3-isopropyl-1-(9a-methyl-9a,10-dihydroindeno[1,2-a]inden-4b(9H)-yl)-2,3-dihydro-1H-pyrido[2,1-f] [1,2,4] triazine-4,6-dione] | < 125 |
| CCN1CN(C23c4cccc(F)c4CC2(C)Cc2c(F)cccc23)n2ccc(=O)c(O)c2C1=O (stereo not shown) [Compound A51] | < 125 |
| CCN1CN(C23c4ccccc4CC2Cc2ccc(F)cc23)n2ccc(=O)c(O)c2C1=O (stereo not shown) [Compound A52] | < 125 |
| CN1CN(C23c4ccccc4CC2Cc2ccc(F)cc23)n2ccc(=O)c(O)c2C1=O (stereo not shown) [Compound A53] | < 125 |
| CN1CN(C23c4cccc(F)c4CC2(C)Cc2c(F)cccc23)n2ccc(=O)c(O)c2C1=O (stereo not shown) [Compound A54] | < 125 |
| CCN1CN(C23c4ccccc4CC2Cc2c(Cl)cccc23)n2ccc(=O)c(O)c2C1=O (stereo not shown) [Compound A55] | < 125 |
| CCN1CN(C23c4ccccc4CC2(CC)Cc2c3ccc(F)c2F)n2ccc(=O)c(O)c2C1=O (stereo not shown) [Compound A56] | < 125 |
| CCOC12Cc3ccccc3C1(N1CN(C)C(=O)c3c(O)c(=O)ccn31)c1ccccc1C2 (stereo not shown) [Compound A57] | < 125 |
| O=C1c2c(O)c(=O)ccn2N(C23c4cccc(F)c4CC2Cc2c(F)cccc23)CN1CCF (stereo not shown) [Compound A58] | < 125 |
| CN1C(=O)c2c(O)c(=O)ccn2N(C23c4cccc(F)c4CC2Cc2c(F)cccc23)C1CO (stereo not shown) [Compound A59] | < 125 |
| CC1N(C)C(=O)c2c(O)c(=O)ccn2N1C12c3ccccc3CC1Cc1c(F)cccc12 (stereo not shown) [Compound A60] | < 125 |
| O=C1c2c(O)c(=O)ccn2N(C23c4ccccc4CC2Cc2c3ccc(F)c2F)CN1C1CC1 (stereo not shown) [Compound A61] | < 125 |
| COC12Cc3ccccc3C1(N1CN(C)C(=O)c3c(O)c(=O)ccn31)c1ccccc1C2 (stereo not shown) [Compound A62] | < 125 |
| CN1CN(C23c4ccccc4CC2(C(F)F)Cc2ccccc23)n2ccc(=O)c(O)c2C1=O (stereo not shown) [Compound A63] | < 125 |
| CC1N(C)C(=O)c2c(O)c(=O)ccn2N1C12c3ccccc3CC1Cc1c2ccc(F)c1F (stereo not shown) [Compound A64] | < 125 |
| O=C1c2c(O)c(=O)ccn2N(C23c4ccccc4CC2Cc2c(F)cccc23)CN1C1CC1 (stereo not shown) [Compound A65] | < 125 |

| Structure (SMILES) | EC50 [nM] |
| --- | --- |
| CCN1CN(C23c4cccc(C)c4CC2Cc2c(F)cccc23)n2ccc(=O)c(O)c2C1=O (stereo not shown) [Compound A66] | < 125 |
| Cc1cccc2c1CC1Cc3c(F)cccc3C21N1CN(C)C(=O)c2c(O)c(=O)ccn21 (stereo not shown) [Compound A67] | < 125 |
| O=C1c2c(O)c(=O)ccn2N(C23c4ccccc4CC2Cc2c(F)cccc23)CN1CCF (stereo not shown) [Compound A68] | < 125 |
| COCCN1CN(C23c4ccccc4CC2Cc2c(F)cccc23)n2ccc(=O)c(O)c2C1=O (stereo not shown) [Compound A69] | < 125 |
| COCCN1CN(C23c4ccccc4CC2Cc2c3ccc(F)c2F)n2ccc(=O)c(O)c2C1=O (stereo not shown) [Compound A70] | < 125 |
| O=C1c2c(O)c(=O)ccn2N(C23c4cccc(F)c4CC2Cc2c(F)cccc23)CN1CC(F)F (stereo not shown) [Compound A71] | < 125 |
| O=C1c2c(O)c(=O)ccn2N(C23c4cccc(F)c4CC2Cc2c(F)cccc23)CN1CCCF (stereo not shown) [Compound A72] | < 125 |
| CC1N(C)C(=O)c2c(O)c(=O)ccn2N1C12c3cccc(F)c3CC1Cc1c(F)cccc12 (stereo not shown) [Compound A73] | < 125 |
| O=C1c2c(O)c(=O)ccn2N(C23c4ccccc4CC2Cc2c3ccc(F)c2F)CN1CCF (stereo not shown) [Compound A74] | < 125 |
| O=C1c2c(O)c(=O)ccn2N(C23c4ccccc4CC2Cc2c(F)cccc23)CN1CC1CCOCC1 (stereo not shown) [Compound A75] | < 125 |
| O=C1c2c(O)c(=O)ccn2N(C23c4cccc(F)c4CC2Cc2c(F)cccc23)CN1CC1CC1 (stereo not shown) [Compound A76] | < 125 |
| CCN1CN(C23c4ccccc4CC2Cc2c3ccc(F)c2C)n2ccc(=O)c(O)c2C1=O (stereo not shown) [Compound A77] | 125 to 250 |
| Cc1c(F)ccc2c1CC1Cc3ccccc3C21N1CN(C)C(=O)c2c(O)c(=O)ccn21 (stereo not shown) [Compound A78] | < 125 |
| O=C1c2c(O)c(=O)ccn2N(C23c4ccccc4CC2Cc2c(F)cccc23)CN1CCCF (stereo not shown) [Compound A79] | < 125 |
| O=C1c2c(O)c(=O)ccn2N(C23c4ccccc4CC2Cc2c3ccc(F)c2F)CN1CCCF (stereo not shown) [Compound A80] | < 125 |
| O=C1c2c(O)c(=O)ccn2N(C23c4cccc(F)c4CC2Cc2c(F)cccc23)CN1CC1CCOCC1 (stereo not shown) [Compound A81] | 125 to 250 |
| CCN1CN(C23c4ccccc4CC2Cc2c(C)cccc23)n2ccc(=O)c(O)c2C1=O (stereo not shown) [Compound A82] | 125 to 250 |
| O=C1c2c(O)c(=O)ccn2N(C23c4ccccc4CC2Cc2c(F)cccc23)CN1CC(F)F (stereo not shown) [Compound A83] | < 125 |
| O=C1c2c(O)c(=O)ccn2N(C23c4ccccc4CC2Cc2c3ccc(F)c2F)CN1CC(F)F (stereo not shown) [Compound A84] | 125 to 250 |
| Cc1ccc2c(c1F)CC1Cc3ccccc3C21N1CN(C)C(=O)c2c(O)c(=O)ccn21 (stereo not shown) [Compound A85] | 250 to 375 |
| O=C1c2c(O)c(=O)ccn2N(C23c4cccc(F)c4CC2Cc2c(F)cccc23)CN1CCc1ccccc1 (stereo not shown) [Compound A86] | < 125 |
| O=C1c2c(O)c(=O)ccn2N(C23c4ccccc4CC2Cc2c(F)cccc23)CN1CCc1ccccc1 (stereo not shown) [Compound A87] | < 125 |
| CC(C)N1CN(C23c4cccc(F)c4CC2(C)Cc2c(F)cccc23)n2ccc(=O)c(O)c2C1=O (stereo not shown) [Compound A89] | 375 to 500 |
| CC(CCN1CN(C23c4ccccc4CC2Cc2c3ccc(F)c2F)n2ccc(=O)c(O)c2C1=O)c1ccccc1 (stereo not shown) [Compound A91] | 125 to 250 |
| O=C1c2c(O)c(=O)ccn2N(C23c4ccccc4CC2Cc2c3ccc(F)c2F)CN1C1CCC1 (stereo not shown) [Compound A92, 3-Cyclobutyl-1-(1,2-difluoro-9a,10-dihydroindeno[1,2-a]inden-4b(9H)-yl)-5-hydroxy-2,3-dihydro-1H-pyrido[2,1-f][1,2,4]triazine-4,6-dione] | 250 to 375 |
| O=C1c2c(O)c(=O)ccn2N(C23c4ccccc4CC2Cc2c(Cl)cccc23)CN1C1CC1 (stereo not shown) [Compound A93] | 125 to 250 |

same assay, conditions: strain B/Lee/40, MDCK cells, CPE inhibition at 4 days

| Structure (SMILES) | EC50 [nM] |
| --- | --- |
| CC(CCN1CN(C23c4ccccc4CC2Cc2ccccc23)n2ccc(=O)c(O)c2C1=O)c1ccccc1 (stereo not shown) [Compound A32, 1-(9a,10-dihydroindeno[1,2-a]inden-4b(9H)-yl)-5-hydroxy-3-(3-phenylbutyl)-2,3-dihydro-1H-pyrido[2,1-f][1,2,4]triazine-4,6-dione] | < 125 |
| CC(CCN1CN(C23c4ccccc4CC2Cc2ccccc23)n2ccc(=O)c(O)c2C1=O)c1ccccc1 (stereo not shown) [Compound A33] | > 500 |
| CCN1CN(C23c4cccc(F)c4CC2Cc2c(F)cccc23)n2ccc(=O)c(O)c2C1=O (stereo not shown) [Compound A34] | > 500 |
| CCN1CN(C23c4cccc(F)c4CC2Cc2c(F)cccc23)n2ccc(=O)c(O)c2C1=O (stereo not shown) [Compound A43] | < 125 |
| CCN1CN(C23c4ccccc4CC2Cc2c3ccc(F)c2F)n2ccc(=O)c(O)c2C1=O (stereo not shown) [Compound A45] | < 125 |
| CN1CN(C23c4ccccc4CC2Cc2c3ccc(F)c2Cl)n2ccc(=O)c(O)c2C1=O (stereo not shown) [Compound A90] | < 125 |
